From ChEMBL document CHEMBL1201862, “PubChem BioAssay data set” (2004)
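Growth conditions: 96-well plates. Treatment: test compound, 48 hours, 5 concentrations. Analysis: linear interpolation between bracketing concentrations; unreached endpoints set to highest concentration. GI50 marks 50% less growth.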 Activity calls are given as the source filed them. Cut-off read from the data, not from the text of the source: active = GI50 up to about 1.1 µM and inactive = higher.

Key:
Assay in all cases: DTP human tumour cell line panel, 48 h
[1] = system: ACHN
[2] = system: BT-549
[3] = system: CAKI-1
[4] = system: CCRF-CEM
[5] = system: HOP-62
[6] = system: HT-29
[7] = system: IGROV-1
[8] = system: K562
[9] = system: MDA-N
[10] = system: NCI/ADR-RES
[11] = system: OVCAR-3
[12] = system: OVCAR-8
[13] = system: PC-3
[14] = system: SF-295
[15] = system: SK-MEL-5
[16] = system: SNB-19
[17] = system: SR
[18] = system: T47D
[19] = system: TK-10
[20] = system: KM-20L2

Row | SMILES | GI50 [1] | GI50 [2] | GI50 [3] | GI50 [4] | GI50 [5] | GI50 [6] | GI50 [7] | GI50 [8] | GI50 [9] | GI50 [10] | GI50 [11] | GI50 [12] | GI50 [13] | GI50 [14] | GI50 [15] | GI50 [16] | GI50 [17] | GI50 [18] | GI50 [19] | GI50 [20]
1 | CC(C)Oc1cc2c(cc1O)CC[C@@H]1[C@@H]2CC[C@]2(C)[C@@H](O)CC[C@@H]12 | 9.89 µM (inactive) | 5.71 µM (inactive) | 1.52 µM (inactive) | 2.9 µM (inactive) | 4.15 µM (inactive) | 9.84 µM (inactive) | 6.14 µM (inactive) | 1.51 µM (inactive) | 0.424 µM (active) | 2.07 µM (inactive) | 2.81 µM (inactive) | 8.75 µM (inactive) | 8.97 µM (inactive) | 3 µM (inactive) | 3.01 µM (inactive) | 5.31 µM (inactive) | 0.575 µM (active) | 4.68 µM (inactive) | 11 µM (inactive) | 
2 | O=c1[nH]c(C2CCCCC2)nc2cc(Cl)ccc12 | > 100 µM (inactive) |  | > 100 µM (inactive) |  |  | > 100 µM (inactive) | > 100 µM (inactive) | > 100 µM (inactive) |  |  | > 100 µM (inactive) | > 100 µM (inactive) |  | 92.7 µM (inactive) | > 100 µM (inactive) | > 100 µM (inactive) | > 100 µM (inactive) |  | > 100 µM (inactive) | > 100 µM (inactive)
3 | C=CC[C@H]1[C@H](O[Si](C)(C)C(C)(C)C)C=CC(=O)[C@@H]1CC(=O)N(Cc1ccccc1)Cc1ccccc1 | 15 µM (inactive) | 16.9 µM (inactive) | 12.4 µM (inactive) | 7.85 µM (inactive) | 25.6 µM (inactive) | 6.35 µM (inactive) | 20.8 µM (inactive) | 4.69 µM (inactive) | 16.4 µM (inactive) | 10.8 µM (inactive) | 15.1 µM (inactive) | 16.1 µM (inactive) | 10.4 µM (inactive) | 15.1 µM (inactive) | 7.83 µM (inactive) | 29.6 µM (inactive) | 9.29 µM (inactive) | 3.3 µM (inactive) | 19.2 µM (inactive) | 
4 | O=C1C(NCCc2ccc(O)c(O)c2)=CC(=O)c2ncccc21 | 11.1 µM (inactive) | 4.28 µM (inactive) | 5.52 µM (inactive) | 3.22 µM (inactive) | 19.2 µM (inactive) | 30.3 µM (inactive) | 9.53 µM (inactive) | 2.42 µM (inactive) | 2.03 µM (inactive) | 14.4 µM (inactive) | 2.06 µM (inactive) | 13.4 µM (inactive) | 21.9 µM (inactive) | 12.6 µM (inactive) | 2.93 µM (inactive) | 18.5 µM (inactive) | 9.98 µM (inactive) | 22.7 µM (inactive) | 36.2 µM (inactive) | 
5 | Nc1nc(Cl)cc(NCC2(CO)CC(CCc3ccccc3)C2)n1 (stereo unspecified) | > 29 µM (inactive) | > 32.8 µM (inactive) | > 100 µM (inactive) | > 58.9 µM (inactive) | > 37.6 µM (inactive) | > 46 µM (inactive) | > 100 µM (inactive) | 1.42 µM (inactive) | > 100 µM (inactive) | 4.14 µM (inactive) | 5.07 µM (inactive) | 21.8 µM (inactive) | 73.8 µM (inactive) | 5.9 µM (inactive) | 0.506 µM (active) | > 100 µM (inactive) | 1.31 µM (inactive) | 0.542 µM (active) | > 70.5 µM (inactive) | 
6 | O=C(O)Cc1cc(=O)oc2cc(O)c(Cl)cc12 | > 100 µM (inactive) |  | > 100 µM (inactive) | > 100 µM (inactive) | > 100 µM (inactive) | > 100 µM (inactive) | > 100 µM (inactive) | > 100 µM (inactive) |  |  | > 100 µM (inactive) | > 100 µM (inactive) |  | > 100 µM (inactive) | > 100 µM (inactive) | > 100 µM (inactive) |  |  | > 100 µM (inactive) | > 100 µM (inactive)
7 | Cc1ccc(C2SC(=N)Nc3c2c(C)nn3C(=O)c2ccncc2)cc1 (stereo unspecified) | > 10 µM (inactive) | > 10 µM (inactive) | > 10 µM (inactive) | > 10 µM (inactive) | > 10 µM (inactive) | > 10 µM (inactive) | > 10 µM (inactive) | > 10 µM (inactive) | > 10 µM (inactive) | > 10 µM (inactive) | > 10 µM (inactive) | > 10 µM (inactive) | > 10 µM (inactive) | > 10 µM (inactive) | > 10 µM (inactive) | > 10 µM (inactive) | > 10 µM (inactive) | > 10 µM (inactive) | > 10 µM (inactive) | 
8 | Cn1c2ncccc2n2c(=O)cc(O)cc12 | > 100 µM (inactive) | 94.4 µM (inactive) | 32.4 µM (inactive) | > 100 µM (inactive) | 39.4 µM (inactive) | 46.6 µM (inactive) | 12.3 µM (inactive) | > 100 µM (inactive) | 81.1 µM (inactive) | 81.5 µM (inactive) | 40.8 µM (inactive) | > 100 µM (inactive) | 56.4 µM (inactive) | 97.9 µM (inactive) | > 100 µM (inactive) | > 100 µM (inactive) | > 100 µM (inactive) | 24.1 µM (inactive) | 45 µM (inactive) | 
9 | O=C1CC(Cl)c2c(Cl)sc(Cl)c21 (stereo unspecified) | 1.95 µM (inactive) | 4.06 µM (inactive) | 1.76 µM (inactive) | 0.255 µM (active) | 6 µM (inactive) | 2.23 µM (inactive) | 1.99 µM (inactive) | 2.85 µM (inactive) | 2.32 µM (inactive) | 3.35 µM (inactive) | 2.31 µM (inactive) | 1.8 µM (inactive) | 2.2 µM (inactive) | 15.4 µM (inactive) | 13.2 µM (inactive) | 11.4 µM (inactive) | 1.41 µM (inactive) | 2.92 µM (inactive) | 2.36 µM (inactive) | 
10 | O=C(/C=C/c1c(O)ccc2ccccc12)c1ccc2ccccc2c1 | > 100 µM (inactive) |  | > 100 µM (inactive) | > 100 µM (inactive) | > 100 µM (inactive) | > 100 µM (inactive) | > 100 µM (inactive) | > 100 µM (inactive) |  |  | > 100 µM (inactive) | > 100 µM (inactive) |  | > 100 µM (inactive) |  | > 100 µM (inactive) |  |  | > 100 µM (inactive) | > 100 µM (inactive)
11 | CC(=O)NC(CCCNC(=O)OCc1ccccc1)C(=O)O (stereo unspecified) | > 100 µM (inactive) |  | > 100 µM (inactive) | > 100 µM (inactive) | > 100 µM (inactive) | > 100 µM (inactive) | > 100 µM (inactive) | > 100 µM (inactive) |  |  | > 100 µM (inactive) | > 100 µM (inactive) |  | > 100 µM (inactive) | > 100 µM (inactive) | > 100 µM (inactive) |  |  | > 100 µM (inactive) | > 100 µM (inactive)
12 | COCOc1ccc(Cn2c(=O)n(C)c(=O)c3c2ncn3C)cc1[N+](=O)[O-] | > 100 µM (inactive) |  |  | > 100 µM (inactive) | > 10 µM (inactive) | 10.2 µM (inactive) | > 100 µM (inactive) | > 100 µM (inactive) |  |  | > 100 µM (inactive) | > 100 µM (inactive) |  | 25.7 µM (inactive) |  | > 100 µM (inactive) | > 100 µM (inactive) |  | > 100 µM (inactive) | > 100 µM (inactive)
13 | COc1ccc(/C=C2\CCCC(C(NO)c3ccc(OC)cc3)C2=NO)cc1 (stereo unspecified) | 41.6 µM (inactive) |  | 49 µM (inactive) | 33.9 µM (inactive) | 98.9 µM (inactive) | 72.1 µM (inactive) | 33.9 µM (inactive) | 35.4 µM (inactive) |  |  | 47.3 µM (inactive) | 40.5 µM (inactive) |  | 55.6 µM (inactive) | 20 µM (inactive) | 61.4 µM (inactive) |  |  | 66.1 µM (inactive) | 61.9 µM (inactive)
14 | CC(=O)/C=C\C1CC2C=CC1C2 (stereo unspecified) | 79.3 µM (inactive) |  |  | 16.3 µM (inactive) | 92.3 µM (inactive) |  | 81.3 µM (inactive) | 21.6 µM (inactive) |  |  | 37.8 µM (inactive) | 36.3 µM (inactive) |  | 31 µM (inactive) | 57.9 µM (inactive) | 53.5 µM (inactive) |  |  | 86.5 µM (inactive) | 40.2 µM (inactive)
15 | O=C(CSc1nnc(-c2ccc(/N=C\c3ccc(Cl)cc3)cc2)o1)Nc1ccccc1 | > 100 µM (inactive) |  |  | 32.9 µM (inactive) | > 100 µM (inactive) | 44.2 µM (inactive) |  | 30.1 µM (inactive) |  |  |  | > 100 µM (inactive) |  | 94.4 µM (inactive) | 89.9 µM (inactive) | 53 µM (inactive) | 33.1 µM (inactive) |  | > 100 µM (inactive) | > 100 µM (inactive)
16 | CCc1nc2ccccc2c(=O)n1/N=C(\N=N\c1ccc(Cl)cc1)c1ccccc1 | 31.8 µM (inactive) |  | 17 µM (inactive) | 65.8 µM (inactive) | 24.3 µM (inactive) | 15.7 µM (inactive) | 34 µM (inactive) | > 10 µM (inactive) |  |  | 20.7 µM (inactive) | 35.2 µM (inactive) |  | 25 µM (inactive) | 18.4 µM (inactive) | 23.4 µM (inactive) |  |  | 31 µM (inactive) | 14 µM (inactive)
17 | O=C(NCCSSCCNC(=O)/C(Cc1ccc(O)c(Br)c1)=N/O)/C(Cc1ccc(O)c(Br)c1)=N/O [PSAMMAPLIN A] | 1.62 µM (inactive) | 6.21 µM (inactive) | 1.47 µM (inactive) | 0.377 µM (active) | 0.885 µM (active) | 1.35 µM (inactive) | 1.17 µM (inactive) | 1.81 µM (inactive) | 1.6 µM (inactive) | 1.29 µM (inactive) | 1.87 µM (inactive) | 1.52 µM (inactive) | 1.61 µM (inactive) | 1.34 µM (inactive) | 0.927 µM (active) | 2.08 µM (inactive) | 0.38 µM (active) | 3.71 µM (inactive) | 2.92 µM (inactive) | 
